Counter-ions that a name gives are not always drawn. Like-named read-outs stand apart in the source and are kept apart here.

This assay deals with Passive cutaneous anaphylaxis (PCA). The assay is described as follows: Passive cutaneous anaphylaxis (PCA) in rats. The format is in vivo. The following applies: Rattus norvegicus. The source says:
Cutaneous anaphylaxis can be induced in rats by intradermal (ID) sensitization with antiserum followed three days later by systemic challenge with antigen. Evans blue dye injected with the antigen is used as a marker to assess the severity of the local response. Anti-allergic drugs inhibit this reaction. This method has been described by OVARY (1962) "[…] Cutaneous Anaphylaxis in Allergology" Page 358-367 Ed. Brown: Pergamon Press:-male rats weighing 180-220 grams are used in groups of seven. […] 1. Wash 120 grams of Al(OH)3 gel in 140 ml of saline (use of a macerater facilitates mixing). 2. Centrifuge at 3,000 r.p.m. for about 10 minutes. 3. Resuspend the precipitate with 300 ml of albumen egg powder (1.3 mg/ml) in saline and allow to stand for 30 minutes. 4. Centrifuge at 3,000 r.p.m. for 10 minutes. 5. Weigh the wet precipitate and to each gram weight add 1 ml of saline. Store in refrigerator (Quantity sufficient for 60 rats for a 3 day sensitization program). […] 1 ml of the alum precipitated ovalbumen was injected subcutaneously into rats weighing 180-220 grams on days 0,2,4. The rats were bled on day 14 either by cardiac puncture or via the dorsal abdominal aorta. Equal quantities of serum from each animal were pooled and thoroughly mixed and 2 ml aliquots were stored at -20° C. in plastic tubes. Serum Dilution for PCA The antiserum for sensitization was diluted so that an ID injection of 0.1 ml into control animals would give an average score of a single spot of between 2.0-3.5 using a 4 point scoring system. Method (A) SENSITIZATION: The rats were anaesthetized with Nembutal (40-60 mg/kg i.p.) and were then sensitized by four ID injections (0.1 ml each) on their shaved backs. The animals were then left for a period of three days to develop sensitization. (B) […]: The sensitized rats were dosed orally or intraveneously with the drug immediately prior to intraveneous challenge via the superficial penile vein with 1 ml of an antigen/Evans blue mixture (1 mg albumen egg powder in 0.5 ml saline plus 0.5 ml of 1% Evans blue). The injections were speeded up by using an automatic 1 ml self-filling glass syringe. The "challenged" rats were killed after 30 minutes, (usually pithed) and their skin on the dorsal surface was removed. The degree and area of blueing, proportional to the anaphylactic reaction was assessed on a four point scoring system. Calculations 1. Total scores for sites 1,2,3 and 4=X 2. Mean value of X for each group=X 3. X t=X for test group X c=X for control group [formula] 5. […] ED50 values for the compounds tested in the passive cutaneous anaphylaxis screen (in rats) are as follows: […]

Where [1] appears, read: read-out: ED50 (dose of drug giving 50% inhibition), p.o., oral dosing immediately prior to antigen/Evans blue challenge.
The mark [2] stands for this setting: read-out: ED50 (dose of drug giving 50% inhibition), i.v., intravenous dosing immediately prior to antigen/Evans blue challenge.

For `CCOC(=O)c1cn2c(cc(Cl)c3ccccc32)n1` [Example 5, ethyl 5-chloroimidazo-[1,2-a]-quinoline-2-carboxylate], under setting [1], the ED50 came to 0.096 mg/kg.

Turning to `O.O=C(O)c1cn2c(ccc3cc(Cl)ccc32)n1` [Example 24, 7-chloroimidazo-[1,2-a]-quinoline-2-carboxylic acid monohydrate], the ED50 under setting [2] was 0.29 mg/kg.

On to `CC(C)Oc1cc2nc(C(=O)O)cn2c2cc(Cl)ccc12` [Example 18, 8-chloro-5-isopropoxyimidazo-[1,2-a]-quinoline-2-carboxylic acid], for which the ED50 runs as follows: under setting [2], 0.027 mg/kg; under setting [1], 0.34 mg/kg.

Take `COc1ccc2c(OC)cc3nc(C(=O)O)cn3c2c1` [Example 12, 5,8-dimethoxyimidazo-[1,2-a]-quinoline-2-carboxylic acid]: under setting [2], the ED50 was 1.22 mg/kg.

On to `COc1cc2nc(C(=O)O)cn2c2ccccc12` [Example 4, THAM salt of 5-methoxyimidazo-[1,2-a]-quinoline-2-carboxylic acid], for which the ED50 reads like this: under setting [2], 0.57 mg/kg; under setting [1], 3.74 mg/kg.

As for `COc1ccc2c(ccc3nc(C(=O)O)cn32)c1` [Example 28, 7-methoxyimidazo-[1,2-a]-quinoline-2-carboxylic acid], under setting [2], the ED50 was 0.03 mg/kg.

Regarding `COc1ccc2ccc3nc(C(=O)O)cn3c2c1` [Example 20, 8-methoxyimidazo-[1,2-a]-quinoline-2-carboxylic acid], the ED50 was found to be 0.038 mg/kg under setting [2] and 0.14 mg/kg under setting [1].

As for `COc1ccc2c(OC(C)C)cc3nc(C(=O)O)cn3c2c1` [Example 14, 8-methoxy-5-isopropoxyimidazo-[1,2-a]-quinoline-2-carboxylic acid], the ED50 by setting is: under setting [2], 0.091 mg/kg; under setting [1], approximately 10 mg/kg.

As to `O=C(O)c1cn2c(cc(Br)c3ccccc32)n1` [Example 26, 5-bromoimidazo-[1,2-a]-quinoline-2-carboxylic acid], the ED50 by setting is: under setting [2], 0.046 mg/kg; under setting [1], 0.14 mg/kg.

Regarding `O=C(O)c1cn2c(cc(Cl)c3ccccc32)n1` [Example 6, 5-chloroimidazo-[1,2-a]-quinoline-2-carboxylic acid hydrochloride], the ED50 is 0.0075 mg/kg under setting [2] and 0.47 mg/kg under setting [1].

On to `COc1ccc2c(Cl)cc3nc(C(=O)O)cn3c2c1.Cl` [Example 16, 5-chloro-8-methoxyimidazo-[1,2-a]-quinoline-2-carboxylic acid hydrochloride], for which the ED50 reads like this: under setting [2], 0.016 mg/kg; under setting [1], 0.27 mg/kg.

Take `CC(C)Oc1cc2nc(C(=O)O)cn2c2ccccc12` [Example 8, 5-isopropoxyimidazo-[1,2-a]-quinoline-2-carboxylic acid hydrochloride]: the ED50 under setting [2] is 0.12 mg/kg and the ED50 under setting [1] came to 1.13 mg/kg.

Turning to `O=C(OCCN1CCCCC1)c1cn2c(ccc3ccccc32)n1` [Example 35, 2-piperidinoethyl imidazo-[1,2-a]-quinoline-2-carboxylate], under setting [2], the ED50 is 0.42 mg/kg.

For `O=C(O)c1cn2c(ccc3ccccc32)n1` [Example 2, imidazo-[1,2-a]-quinoline-2-carboxylic acid hydrochloride], the ED50 is, setting by setting: under setting [2], 0.29 mg/kg; under setting [1], 0.63 mg/kg.

`O=C(O)c1cn2c(cc(Cl)c3ccc(Br)cc32)n1` [Example 32, 8-bromo-5-chloroimidazo-[1,2-a]-quinoline-2-carboxylic acid]: the ED50 runs as follows: under setting [2], 0.025 mg/kg; under setting [1], 0.08 mg/kg.

Take `CCOC(=O)c1cn2c(ccc3ccc(Cl)cc32)n1` [Example 9, ethyl 8-chloroimidazo-[1,2-a]-quinoline-2-carboxylate]: the ED50 under setting [1] is 1.72 mg/kg.

In the case of `O=C(O)c1cn2c(ccc3ccc(Cl)cc32)n1` [Example 10, sodium 8-chloroimidazo-[1,2-a]-quinoline-2-carboxylate], the ED50 turned out to be 0.069 mg/kg under setting [2] and 0.11 mg/kg under setting [1].

Regarding `O=C(O)c1cn2c(cc(Cl)c3ccc(Cl)cc32)n1` [Example 22, 5,8-dichloroimidazo-[1,2-a]-quinoline-2-carboxylic acid], the ED50 under setting [2] was 0.023 mg/kg and the ED50 under setting [1] is 0.033 mg/kg.

(Values after US4279912A, “Novel imidazoquinolines” (Roussel Uclaf, priority 1977, dated 1981).)
